Laboratory results: patent publication US11026423B2, “Herbicidal compositions and methods” (SePRO Corporation, priority 2013, dated 2021)

Key:
[1] = system: crabgrass (Digitaria spp.); experiment: Example 6 Kerman almond orchard: crabgrass control; format: in vivo; conditions: 184 DAT, 0.4 and 0.8 lb fluridone/ac
Experimental: (§1) Field trials were conducted in California to determine sweet almond (Prunus dulcis) tolerance to fluridone and efficacy of fluridone in an irrigated orchard environment. Trial locations included a two-year old almond stand in Kerman, Calif. and a six-year old stand in Shafter, Calif. The soil in both locations is classified as a sandy loam. Applications prior to emergence of weeds (PRE) of herbicides were made in the month of January in Kerman and in the month of January in Shafter. […] Rainfall (0.32 in (about 0.813 cm)) and irrigation (1.5 in (about 3.81 cm)) one day after PRE applications were used to incorporate herbicides into the soil at the Kerman and Shafter locations, respectively. Both sites were irrigated as needed during the growing season to avoid drought conditions. Visual evaluations of crop injury and weed control were made monthly on a 0 to 100% scale. Postemergent (POST) broadcast applications of a non-selective, contact herbicide was broadcast across all treatments in Kerman prior to the 90 days after treatment and 119 days after treatment (DAT) ratings. Thus, data from those ratings dates was not evaluated. No POST applications were made in Shafter.

[2] = system: witchgrass (Panicum capillare L.); experiment: Example 8 Elderwood orange orchard: witchgrass control; format: in vivo; conditions: 168 DAT, three highest fluridone rates; indaziflam
Experimental: (§2) A field trial was conducted in California to evaluate tolerance of non-bearing “Cara Cara” orange (Citrus sinensis) to fluridone and the efficacy of fluridone in an irrigated orchard environment. The trial was initiated in the month of January in Elderwood, Calif. The soil on the trial site was classified as a clay. […] Rainfall (0.44 in. (about 1.12 cm)) that occurred in the first week following PRE application incorporated the herbicides into the soil. The site was irrigated as needed during the growing season to avoid drought conditions. Visual evaluations of crop injury and weed density were made on a 0 to 100% scale. Additionally, plant counts per plot of weed species present were conducted for each evaluation period.

[3] = system: spotted spurge (Euphorbia maculate); experiment: Example 6 Shafter almond orchard: spotted spurge control; format: in vivo; conditions: 211 DAT, fluridone 0.4 and 0.8 lb/ac
Experimental: as §1

hairy fleabane [4] = experiment: Example 6 Shafter almond orchard: hairy fleabane control; format: in vivo, Conyza bonariensis; conditions: 211 DAT, fluridone 0.4 and 0.8 lb/ac
Experimental: as §1

[5] = system: weeds (total weed control); experiment: Example 10 irrigated walnut, Stockton, Calif.: total weed control; format: in vivo; conditions: fluridone 0.2 to 0.4 lb/ac
Experimental: An experiment with walnut was conducted during the months of December to the month of June the following year in Stockton, Calif. Plots were arranged as a randomized complete block with three replicates. Plots were 8 ft×8 ft (about 2.43 meters by meters)(1 tree/plot). The soil on the site is classified as a clay loam. […] The site received approximately four inches (about 10.16 cm) of rainfall in the first 35 DAT, and an additional 2.9 inches (about 7.366 cm) rainfall and 6.5 inches (about 16.51 cm) irrigation the next 124 days thereafter. Visually evaluations of weed control were made monthly on a 0 to 100% scale.

[6] = system: Palmer amaranth (Amaranthus palmeri); experiment: Example 9 greenhouse: preemergence Palmer amaranth control under varying irrigation; format: in vivo; conditions: fluridone 0.2 lb/ac, coarse sand soil, irrigation 0 to 1.0 inch
Experimental: An experiment was conducted beginning in the month of August in a greenhouse. The greenhouse was arranged as a randomized complete block with four replicates. A coarse sand soil was used to fill four inch diameter pots. […] Overhead irrigation occurred eight and 10 days after treatment, applying an additional 0.25 inch (abou 0.635 cm) of water to each pot. Palmer amaranth control was determined by counting seedlings in each pot weekly.

[7] = system: sprangletop (Leptochloa sp.); experiment: Example 6 Shafter almond orchard: sprangletop control; format: in vivo; conditions: 211 DAT, three highest rates of fluridone
Experimental: as §1

weeds in walnut orchard = experiment: Example 11 walnut orchard field trial: weed efficacy; format: in vivo
Experimental: A field trial was performed in a dormant 4th year walnut orchard (Chandler variety) located near Stockton, Calif. The trial was initiated in December for weed efficacy studies and crop tolerance studies. Plots were about 8 feet by about 18 feet (about 2.43 meters by about 5.49 meters) with one tree per plot arranged in a randomized complete block design with three replications. Fluridone, flumioxazin, Roundup, and glufosinate ammonium were tested.

hairy fleabane [8] = experiment: Example 8 Elderwood orange orchard: hairy fleabane control; format: in vivo
Experimental: as §2

[9] = system: redmaids (Calandrinia sp.); experiment: Example 7 Kerman vineyard: redmaids control; format: in vivo; conditions: 58 DAT, fluridone 0.2, 0.4 and 0.8 lb/ac
Source text: (§3) Trials were placed in grape vineyards located in Kerman and Kingsburg, Calif. The soil in both locations is classified as a sandy loam. Preemergent herbicide applications were made in the month of January in Kerman and in the month of March in Kingsburg. […] Additionally, indaziflam applied at 0.065 lb/ac was included at the Kingsburg site. […] Both sites were irrigated as needed during the growing season to avoid drought conditions. Visual evaluations of crop injury and weed control were made monthly on a 0 to 100% scale. Cultivation occurred in the row centers at the Kerman location following the 58 DAT evaluations, and therefore, the Kerman results following 58 DAT were not evaluated. No cultivation occurred in Kingsburg during the trial period.

[10] = system: yellow nutsedge (Cyperus esculentus L.); experiment: Example 6 Kerman almond orchard: yellow nutsedge control; format: in vivo; conditions: 184 DAT, 0.4 and 0.8 lb fluridone/ac
Experimental: as §1

yellow nutsedge = experiment: Example 6 Shafter almond orchard: yellow nutsedge control; format: in vivo, Cyperus esculentus L.
Experimental: as §1

Palmer amaranth = experiment: Example 10 dryland cotton field, Jackson, Tenn.: Palmer amaranth control; format: in vivo, Amaranthus palmeri; conditions: fluridone 0.1 to 0.5 lb/ac
Experimental: An experiment with cotton was conducted during the months of April to the month of June in Jackson, Tenn. Plots were arranged as a randomized complete block with four replicates. Plots were 6.3 ft by 30 ft (about 1.92 meteres by about 9.114 meters). The soil on the site was classified as a silt loam soil. […] The site received approximately four inches (about 10.16 cm) of rainfall in the first 35 days after treatment (DAT). Visually evaluations of Palmer amaranth control were made twice a month on a 0 to 100% scale.

weeds = experiment: Example 12 UC Davis almond orchard: weed control; format: in vivo; conditions: 1 to 5 months after treatment, all treatment rates
Experimental: (§4) A field trial was conducted in northern California for weed control and safety in one peach orchand and two almond orchards. The herbicide applications were made between January and February when the tree crops were dormant.

[11] = system: hare barley, annual sowthistle, black medic, chickweed, and redstem filaree; experiment: Example 12 Arbuckle almond orchard: weed control; format: in vivo; conditions: approximately 1, 2 and 3 months after treatment
Experimental: as §4
Weed control and crop safety were evaluated at approximately 1, 2, and 3 months after treatment. Weed pressure was fairly heavy, and uniform over the trial site. Populations of hare barley, annual sowthistle, black medic, chickweed, and redstem filaree were recorded.

[12] = system: "Cara Cara" orange (Citrus sinensis); experiment: Example 8 field trial: orange tolerance; format: in vivo; conditions: Elderwood, PRE application, trial period
[13] = system: 'Thompson' grape (Vitis vinifera); experiment: Example 7 field trials: grape tolerance; format: in vivo; conditions: PRE application, Kerman and Kingsburg
Source text: as §3

[14] = system: prostrate spurge (Euphorbia supine Raf.); experiment: Example 8 Elderwood orange orchard: prostrate spurge control; format: in vivo; conditions: 168 DAT, PRE
Experimental: as §2

cotton plants [15] = experiment: Example 3 growth chamber trial, pre-emergent application on cotton; format: in vivo
Experimental: 0.1 L conical assay tubes were planted with a cotton or soybean seed in a sample of sandy loam soil. Seven tubes were prepared for each herbicide application rate. Application of a herbicide composition was performed after planting the seed and prior to the plant's emergence from the soil (i.e., pre-emergent or PRE). Approximately 0.15 inches of water was applied to each pot four hours after application. […] The greenhouse was maintained at 26±5° C. during the day and 11±1° C. during the night.

[16] = system: sweet almond (Prunus dulcis); experiment: Example 6 field trials: almond tolerance; format: in vivo; conditions: Kerman, any PRE herbicide application
Experimental: as §1

cotton plants [17] = experiment: Pot demonstration of safening in cotton (FIG. 4); format: in vivo; conditions: three cotton plants planted, flumioxazin only (FIG. 4)
Source text: Flumioxazin is another herbicide member of the PPO-inhibitor class that is commonly applied pre-emergent to control weeds, and has the chemical name 2-[7-fluoro-3,4-dihydro-3-oxo-4-(2-propynyl)-2H-1,4-benzoxazin-6-yl]-4,5,6,7-tetrahydro-1H-isoindole-1,3(2H)-dione. In certain embodiments of the present invention, flumioxazin can be applied to soil at a rate of about 0.015 pounds per acre to about 0.25 pounds per acre. In other embodiments, flumioxazin can be applied to soil at a rate of about 0.03 pounds per acre to about 0.25 pounds per acre. In another embodiment, flumioxazin can be applied to soil at a rate of about […] to about 0.2 pounds per acre.

P. amaranth [18] = experiment: Greenhouse trial: P. amaranth control across soil types and moisture conditions; format: in vivo, Amaranthus palmeri; conditions: low moisture conditions across some soil types
Source text: In addition to these field trials, greenhouse studies were also undertaken. The greenhouse studies evaluated the use of fluridone, fomesafen, and the combination of fluridone and fomesafen as well as the affect of soil types, and moisture conditions. Four soil types were examined: a predominantly clay soil, a sandy loam soil, a loamy peat soil, and a sandy soil. The moisture conditions evaluated were at 0.2 inches of water, and 1.5 inches of water.

cotton [19] = experiment: May field trial: phytotoxicity to cotton; conditions: May planting field trial, pre-emergent, 1 and 9 weeks post treatment
Experimental: (§5) Cotton was planted in fields in May. The field was then over seeded with P. amaranth. […] Within 24 hours of application of the herbicide, 0.25 inches of rain was recorded. An additional planting of cotton, by hand, was conducted in August with multiple rates.

cotton [20] = experiment: Greenhouse trial: cotton response across soil types and moisture conditions; format: in vivo
Source text: In addition to these field trials, greenhouse studies were also undertaken. […] Four soil types were examined: a predominantly clay soil, a sandy loam soil, a loamy peat soil, and a sandy soil.

P. amaranth [21] = experiment: May field trial: weed control in cotton field; format: in vivo, Amaranthus palmeri; conditions: May planting field trial, pre-emergent, 1 and 9 weeks post treatment
Experimental: as §5

Compound: 1-methyl-3-phenyl-5-[3-(trifluromethyl)phenyl]-4(1H)-pyridone [fluridone]
- crabgrass control greater than flumioxazin [1]: 10%
- control of witchgrass [2]: 100%
- spotted spurge control compared to 0.1 and 0.2 lb fluridone/ac [3]: significantly greater control
- hairy fleabane control compared to 0.1 and 0.2 lb fluridone/ac (hairy fleabane [4]): significantly greater control
- total weed control [5]: good total weed control
- preemergent Palmer amaranth control vs amount of irrigation [6]: increasing the amount of irrigation increases preemergent control
- sprangletop control compared to flumioxazin [7]: significantly greater control than flumioxazin
- weeds observed in plots (weeds in walnut orchard; 129 DAT, lower rates): Some weeds were observed
- weeds observed in plots (weeds in walnut orchard; 159 DAT, fluridone applied at lower rates): lambsquarter, bindweed, spurge and knotweed were observed
- hairy fleabane control (hairy fleabane [8]): Neither fluridone nor indaziflam effectively controlled
- redmaids control greater than flumioxazin [9]: 13.5%
- yellow nutsedge control compared to flumioxazin [10]: similar
- yellow nutsedge control compared to 0.1 and 0.2 lb fluridone/ac (yellow nutsedge; 211 DAT, fluridone 0.4 and 0.8 lb/ac): significantly greater control
- yellow nutsedge control compared to flumioxazin (yellow nutsedge; fluridone applied at every rate): significantly greater than flumioxazin
- Palmer amaranth control (Palmer amaranth): good control of Palmer amaranth
- weed control (weeds): good weed control
- control of all weeds present [11]: ~100%

Compound: Cc1ccc2c(c1)[C@H](Nc1nc(N)nc(C(C)F)n1)[C@@H](C)C2 (mixture of isomers) [indaziflam, N-[(1R,2S)-2,3-dihydro-2,6-dimethyl-1H-inden-1-yl]-6-[(1RS)-1-fluoroethyl]-1,3,5-triazine-2,4-diamine]
- control of witchgrass [2]: 100%
- phytotoxicity [12]: did not contribute to phytotoxicity
- hairy fleabane control (hairy fleabane [8]): Neither fluridone nor indaziflam effectively controlled
- phytotoxicity [13]: Phytotoxicity was not observed
- prostrate spurge control [14]: 95%

Compound: C#CCN1C(=O)COc2cc(F)c(N3C(=O)C4=C(CCCC4)C3=O)cc21 [flumioxazin, 2-[7-fluoro-3,4-dihydro-3-oxo-4-(2-propynyl)-2H-1,4-benzoxazin-6-yl]-4,5,6,7-tetrahydro-1H-isoindole-1,3(2H)-dione]
- weeds observed in plots (weeds in walnut orchard; 129 DAT, lower rates): Some weeds were observed
- phytotoxicity [13]: Phytotoxicity was not observed
- crop stand (number of viable plants) (cotton plants [15]; 0.05 lb/A flumioxazin, seven tubes): one surviving plants out of seven
- growth stage / growth stunting (cotton plants [15]; 26 days after treatment, flumioxazin 0.05 lb/A, scale 0-3): the most growth stunting
- injury to cotton plants (cotton plants [15]; application rates greater than 0.025 lb/A flumioxazin): significantly injured
- cotyledons with excessive wrinkling and brown spotting due to herbicide injury (cotton plants [15]; flumioxazin alone 0.05 lb/A, 26 days after treatment): all of the cotyledons show brown spotting
- lethality to cotton plants (cotton plants [15]; flumioxazin at the highest rates (FIG. 15)): fatal to cotton plants
- phytotoxicity [16]: Phytotoxicity was not observed
- emergence of cotton plants from the soil (cotton plants [17]): only one emerged from the soil

Compound: CS(=O)(=O)NC(=O)c1cc(Oc2ccc(C(F)(F)F)cc2Cl)ccc1[N+](=O)[O-] [fomesafen, 5-[2-chloro-4-(trifluoromethyl)phenoxy]-N-(methylsulfonyl)-2-nitrobenzamide]
- P. amaranth control (P. amaranth [18]): not able to provide complete P. amaranth control
- phytotoxicity (cotton [19]): no phytotoxicity was observed
- growth of treated cotton plants (cotton [20]; 4 weeks after planting (FIG. 3A, 3B)): stunting effect on cotton
- stunting (cotton [20]; less than ideal growing conditions, compared to fluridone and fluridone/fomesafen treatments): some stunting was observed
- control of P. amaranth (P. amaranth [21]): showed control of P. amaranth
